Source: the NIST ThermoML archive (doi:10.1016/j.fluid.2017.04.016)

Experiment: mean ionic activity coefficient (dimensionless); mn = molality of the nth substance listed, in mol/kg
Conditions: 101 kPa, Liquid, galvanic cell

[Br-].[Na+] [sodium bromide] + O
mean ionic activity coefficient
Conditions	298.2 K	310.2 K
m1 = 0.01	0.875	–
m1 = 0.0508	0.835	0.714
m1 = 0.1	–	0.631
m1 = 0.1009	0.777	–
m1 = 0.25	–	0.669
m1 = 0.2509	0.799	–
m1 = 0.5004	0.699	–
m1 = 0.5731	–	0.579
m1 = 0.75	0.637	–
m1 = 0.7503	–	0.559
m1 = 1	0.612	0.547
m1 = 1.25	0.587	0.553
m1 = 1.5	0.57	0.576
m1 = 1.75	0.575	0.61
m1 = 2	0.642	0.635
m1 = 2.25	0.633	0.643
m1 = 2.5	0.644	0.646
m1 = 2.75	0.584	0.711
m1 = 3	0.616	0.846
